Test system: yeast strain, Saccharomyces cerevisiae
Assay: Effect of disinfectant on cell viability
Assay type: cell-based
Conditions: 5 mL cells mixed with 5 mL disinfectant solution
Protocol: A study was conducted to determine the effect of disinfectant on the viability of a yeast strain, Saccharomyces cerevisiae. The primary culture was prepared by incubating seed stock of the yeast in 10 mL tubes containing YPS media at 30° C. for 24 hours in an incubator shaker (Innova 4200, New Brunswick Scientific, Edison, N.J.). Klett flasks containing 50 mL broth were then inoculated with the aliquots of primary culture, and the flasks were incubated at 30° C. in an incubator shaker. The cells were grown until the Klett readings reached about 220. Dey-Engley neutralizing broth (DE broth) (Sigma-Aldrich Corp., St. Louis, Mo.) was used as the neutralizing dilution agent. […] Thin plates were also prepared with the DE broth/agar. […] Cells (5 mL) were mixed with 5 mL sterile PBS or 5 mL of the disinfectant solutions, and incubated for various time points (0.5, 1, 2.5, 5, or 10 minutes). […] After drying, the plates were inverted and incubated at 30° C. The black bar denotes the maximum detection limit of this test.

Measured: cell viability (cells counted on DE broth/agar plates)

CCO [70% alcohol, ethanol]
<10: 0.5 minutes incubation | 1 minute incubation | 2.5 minutes incubation | 5 minutes incubation | 10 minutes incubation
